Source: PMC6656724 (Communications Biology, 2019)
“And” between values parts separate entries of the source, which are not always exact repeats. Equal entries are not always repeated. Where two headings read alike, the source gives them in different places.

How the values were obtained:
[1] = Rat brain penetration study; format: in vivo, male Han Wistar rats; details: 1b 5 mg/kg i.v.; for In blood, prodrug 1b / In brain, prodrug 1b / Unbound brain, prodrug 1b / concentration at 5 min / concentration at 15 min / concentration at 30 min / concentration at 60 min: single rats; for In brain, prodrug 1b / Unbound brain, prodrug 1b: listed as prodrug 1b; for concentration at 5 min / concentration at 15 min / concentration at 30 min / concentration at 60 min: intravenous, 5 mg free base/kg
Description: Prodrug 1b was dosed as a bolus solution intravenously at 5 mg free base/kg (dose volume: 1 mL/kg; dose vehicle: 10% DMSO; 60% PEG400; 30% MilliQ H2O) to male Han Wistar rats (n = 12). At 5, 15, 30 and 60 min following intravenous bolus injection of prodrug 1b, […] (n = 3/timepoint) were placed under terminal anaesthesia with isofluorane. A blood sample was taken by cardiac puncture, the […] decapitated and the brain removed. Brain weight was noted and each brain homogenised with two volumes of methanol:water (1:1; 2 mL/g brain). Each blood sample was diluted with distilled water (1:2). Diluted blood and the brain homogenates were then stored frozen until preparation and analysis by UPLC-MS/MS, monitoring for prodrug 1b and production of inhibitor 1. For each rat at each timepoint for 1, the concentration in brain (ng/g) was divided by the concentration in blood (ng/mL) to give a brain:blood ratio. The mean value obtained was quoted.
A rapid and sensitive ultra-performance chromatography/tandem mass spectrometry (UPLC-MS/MS) method was developed and validated for the determination of inhibitor 1 and prodrug 1b (rat only). Chromatographic analysis was conducted on a Waters Acquity™ UPLC system. Chromatographic separation was performed with an Acquity™ UPLC BEH C18 column (50 × 2.1 mm, 1.7 µm, 130Å; Waters Corp.) maintained at 40 °C in a column oven. The mobile phase consisted of water with 0.01% formic acid and ACN with 0.01 % formic acid and it was delivered at a flow rate of 0.6 mL/min under gradient eluent conditions within an analysis cycle time of 3 min. The mass detection was conducted on a Waters Xevo™ TQs mass spectrometer equipped with a ScanWave™ technology. Quantitation of the analyte was performed in electrospray positive ionisation mode (ESI^+) using multiple reaction monitoring. The optimised fragmentation transition was m/z = 270.17 → 196.19 (mouse) or m/z = 270.17 → 223.76 (rat) for inhibitor 1 and m/z = 297.83 → 195.74 for prodrug 1b (rat).
Sample extraction for blood and brain homogenate was by protein precipitation (1:3 or 1:6) using ACN containing suitable internal standard. Extracts were vortexed followed by centrifugation (2800 rpm for 10 min). An aliquot of each supernatant was then diluted two-fold in distilled water ready for analysis by UPLC-MS/MS.
The weighted 1/x^2 calibration line was linear in the dynamic range of 1–5000 ng/mL for inhibitor 1 and 1–1000 ng/mL for prodrug 1b with a correlation coefficient (r^2) > 0.99 (inhibitor 1) or 0.98 (prodrug 1b). The quality control samples (QC) were prepared by using the same spiking scheme as the calibration samples and up to four different target concentration brain levels: 2 ng/mL (LQC), 40 ng/mL (MQC), 100 ng/mL (HQC) and 2000 ng/mL. Data collection, peak integration and calculations were performed using MassLynx software, version 2.1.

[2] = molecular target: MDR1 (P-glycoprotein) (Homo sapiens, UniProt P08183); format: in vitro ADME; details: from effective efflux ratio
Chain of MDR1 (P-glycoprotein) (P08183 whole entry): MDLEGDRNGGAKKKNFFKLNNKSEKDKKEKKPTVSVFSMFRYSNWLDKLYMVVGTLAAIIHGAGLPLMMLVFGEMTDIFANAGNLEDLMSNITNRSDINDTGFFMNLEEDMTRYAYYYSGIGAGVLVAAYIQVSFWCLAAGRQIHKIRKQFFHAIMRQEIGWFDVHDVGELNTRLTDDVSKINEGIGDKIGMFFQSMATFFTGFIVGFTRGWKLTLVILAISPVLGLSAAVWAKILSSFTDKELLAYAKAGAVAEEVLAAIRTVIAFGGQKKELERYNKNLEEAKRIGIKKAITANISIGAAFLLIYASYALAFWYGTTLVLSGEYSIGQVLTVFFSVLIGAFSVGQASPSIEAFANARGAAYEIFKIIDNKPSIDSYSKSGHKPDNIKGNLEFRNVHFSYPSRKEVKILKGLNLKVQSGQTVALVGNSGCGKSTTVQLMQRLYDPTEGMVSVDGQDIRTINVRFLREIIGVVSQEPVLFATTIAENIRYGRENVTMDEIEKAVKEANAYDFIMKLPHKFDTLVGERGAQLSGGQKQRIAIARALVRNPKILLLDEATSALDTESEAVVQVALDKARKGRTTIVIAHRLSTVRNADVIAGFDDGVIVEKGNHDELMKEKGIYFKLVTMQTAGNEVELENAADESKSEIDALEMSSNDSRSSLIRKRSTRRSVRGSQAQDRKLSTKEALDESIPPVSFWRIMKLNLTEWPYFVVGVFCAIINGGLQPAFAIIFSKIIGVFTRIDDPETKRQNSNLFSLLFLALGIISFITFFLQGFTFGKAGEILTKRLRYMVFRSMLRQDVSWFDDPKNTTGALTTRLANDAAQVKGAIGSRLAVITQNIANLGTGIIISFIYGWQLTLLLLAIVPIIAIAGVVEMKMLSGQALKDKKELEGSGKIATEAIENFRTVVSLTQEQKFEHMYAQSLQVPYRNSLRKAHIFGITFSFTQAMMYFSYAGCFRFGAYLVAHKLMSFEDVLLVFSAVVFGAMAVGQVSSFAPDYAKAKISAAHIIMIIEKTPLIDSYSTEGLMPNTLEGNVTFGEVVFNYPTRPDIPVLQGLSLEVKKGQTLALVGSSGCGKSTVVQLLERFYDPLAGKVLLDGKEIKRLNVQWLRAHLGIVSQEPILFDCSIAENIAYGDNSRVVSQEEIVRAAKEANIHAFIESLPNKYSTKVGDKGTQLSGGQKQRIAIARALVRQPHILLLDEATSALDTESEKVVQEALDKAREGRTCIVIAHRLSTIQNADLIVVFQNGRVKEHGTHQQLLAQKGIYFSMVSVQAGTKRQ
Description: internal standard at each timepoint. […]
including an analytical internal standard.
Apparent permeability (Papp) values were determined from the relationship: […]
Where V is the volume of each Transwell compartment (apical 125 µL, basolateral 600 µL), and concentrations are the relative MS responses for compound (normalized to internal standard) in the donor chamber before incubation and acceptor chamber at the end of the incubation. Area = area of cells exposed for drug transfer (0.33 cm 2).
Efflux ratios (Papp B>A / Papp A>B) were calculated for each compound from the […]
MDR1-MDCK cell line has been engineered to overexpress the efflux transporter, MDR1 (P-glycoprotein), and a finding of good permeability B>A, but poor […]
order to confirm the involvement of MDR1 in any efflux seen, an “ef fective efflux ratio” (EER) was calculated by comparing compound efflux ratios (ER) in the two cell types, i.e. EER = ER (MDR1-MDCK)/ ER (wild-type MDCK). This ratio illustrates the effect of the over-expressed MDR1 normalised for the background movement of compound through the wild-type cells. […]
Compound recovery from the wells was determined from MS responses (normalized to internal standard) in donor and acceptor chambers at the end of incubation compared to response in the donor chamber pre-incubation. […]

[3] = system: MDR1 MDCK cell lines; experiment: in vitro; format: in vitro ADME, canine; details: MDR1 MDCK; listed as Inhibitor 1
[4] = system: wild type MDCK cell lines; experiment: in vitro; format: in vitro ADME, canine; details: wild type MDCK; listed as Inhibitor 1
[5] = molecular target: T1, PfKMO (Pseudomonas fluorescens, UniProt Q84HF5, C252S/C461S); experiment: Hydrogen peroxide production, o-dianisidine / horseradish peroxidase assay; format: biochemical; details: presence and absence of L-Kyn
T1 construct: made in house; host or cells: E. coli BL21 (DE3)
T1 sequence (Q84HF5 whole entry C252S/C461S): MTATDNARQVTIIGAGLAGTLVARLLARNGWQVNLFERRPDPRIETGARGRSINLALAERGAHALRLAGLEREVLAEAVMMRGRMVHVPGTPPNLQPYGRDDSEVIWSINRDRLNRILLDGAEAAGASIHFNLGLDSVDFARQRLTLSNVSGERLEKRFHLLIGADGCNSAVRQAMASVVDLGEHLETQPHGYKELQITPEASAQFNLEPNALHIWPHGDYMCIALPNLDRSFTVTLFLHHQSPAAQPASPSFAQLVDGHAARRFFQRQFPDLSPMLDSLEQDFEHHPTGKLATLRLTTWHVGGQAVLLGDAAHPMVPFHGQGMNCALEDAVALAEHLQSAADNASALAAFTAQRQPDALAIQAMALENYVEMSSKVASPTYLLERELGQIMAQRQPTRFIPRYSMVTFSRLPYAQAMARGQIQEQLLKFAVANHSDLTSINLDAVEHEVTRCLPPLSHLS
Description: H2O2 production rates from PfKMO inhibitor complexes were performed using a horseradish peroxidase (HRP) assay. NADPH consumption rate was measured in the presence and absence of an excess of KMO inhibitors (400 μM). For determination of H2O2 production rates, PfKMO (0.1 μM) was incubated with 100 μM NADPH, 200 μM L-KYN, 400 μM o-dianisidine and ∼5 units HRP in the presence and absence of excess KMO inhibitors. The rate of oxidation of o-dianisidine by H2O2, catalysed by HRP, was monitored at 440 nm (Δε 440 nm = 11.3 mM^−1 cm^−1). To eliminate the L-Kyn competition binding effect, the H2O2 production rates of KMO inhibitors were also measured without L-Kyn with the same method.

In the case of CCOC(=O)CN1C(=O)COc2cc(C)c(Cl)c(C)c21 [1b], the “In blood, prodrug 1b” value ([1]; 5 min) is reported as at most 3 ng/mL, the “In brain, prodrug 1b” value ([1]; 5 min) is reported as 2623 ng/g and 2264 ng/g and the “Unbound brain, prodrug 1b” value ([1]; 5 min) is reported as 42 ng/g and 36 ng/g. For the same molecule, the “In blood, prodrug 1b” value ([1]; 15 min) was at most 3 ng/mL, the “In brain, prodrug 1b” value ([1]; 15 min) was 715 ng/g and 791 ng/g and the “Unbound brain, prodrug 1b” value ([1]; 15 min) was 11 ng/g and 13 ng/g. The “In blood, prodrug 1b” value ([1]; 30 min) was at most 3 ng/mL, the “In brain, prodrug 1b” value ([1]; 30 min) was 203 ng/g and the “Unbound brain, prodrug 1b” value ([1]; 30 min) was 3 ng/g. The “In blood, prodrug 1b” value ([1]; 60 min) was at most 3 ng/mL, the concentration at 5 min ([1]; male, Han Wistar, brain (unbound), 5 min, read-out: Unbound brain, prodrug 1b) was 38 ng/g and the concentration at 15 min ([1]; male, Han Wistar, brain (unbound), 15 min, read-out: Unbound brain, prodrug 1b) was 13 ng/g. The concentration at 30 min ([1]; male, Han Wistar, brain (unbound), 30 min, read-out: Unbound brain, prodrug 1b) was 4 ng/g, the concentration at 5 min ([1]; male, Han Wistar, brain, 5 min, read-out: In brain, prodrug 1b) was 2350 ng/g and the concentration at 15 min ([1]; male, Han Wistar, brain, 15 min, read-out: In brain, prodrug 1b) was 829 ng/g. For the same molecule, the concentration at 30 min ([1]; male, Han Wistar, brain, 30 min, read-out: In brain, prodrug 1b) was 240 ng/g, the concentration at 60 min ([1]; male, Han Wistar, brain, 60 min, read-out: In brain, prodrug 1b) was 62 ng/g and the concentration at 60 min ([1]; male, Han Wistar, brain, 60 min, read-out: Unbound brain, prodrug 1b) was 1 ng/g. It also gave a Tmax ([1]; male, Han Wistar, brain, iv, read-out: Time of maximal concentration of 1b in the brain (converted)) of 5 min, a concentration at 5 min ([1]; male, Han Wistar, whole blood, 5 min, read-out: In blood, prodrug 1b) of at most 3 ng/mL and a concentration at 15 min ([1]; male, Han Wistar, whole blood, 15 min, read-out: In blood, prodrug 1b) of at most 3 ng/mL. It also gave a concentration at 30 min ([1]; male, Han Wistar, whole blood, 30 min, read-out: In blood, prodrug 1b) of at most 3 ng/mL and a concentration at 60 min ([1]; male, Han Wistar, whole blood, 60 min, read-out: In blood, prodrug 1b) of at most 3 ng/mL.

For Cc1cc2c(c(C)c1Cl)N(CC(=O)O)C(=O)CO2 [compound 1, (6-chloro-5,7-dimethyl-3-oxo-2,3-dihydro-4H-1,4-benzoxazin-4-yl) acetic acid], the “Substrate for P-glycoprotein” value [2] was “not a substrate”, the “Papp A>B Mean” value [3] was ~ 15 x 10-6 cm/sec and the “Papp A>B Mean” value [4] was ~ 15 x 10-6 cm/sec. For the same molecule, the H2O2 production [5] was “not detected”.
